By EC50 is commonly meant the concentration needed to bring the measured effect to its halfway point. As usually defined, the inhibition is the share of the control response that was lost under treatment.

The subject of assay [1] is Primary human fibroblasts derived from IPF patients (LL29 cells) treated with TGF-β1. As to the kind of experiment: Inhibition of the fibrotic process: αSMA staining in TGF-β1 treated fibroblasts. It is filed as cell-based. The note with it: Fibroblast, 96 h, LL29 fibroblasts treated with TGF-β1, 4 days; for inhibition at 10 µM: read-out: percent inhibition in brackets beside EC50 >10 μM. The essentials:
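LL29 IPF-patient lung fibroblasts in 1% FBS F12 were given compounds (11-point, 10 μM to […], 0.1% DMSO) plus TGF-β1 20 ng/mL for 4 days at 37 °C. αSMA-positive fraction of live (SYTOX-negative) cells was imaged and normalized to TGF-β1/DMSO wells. EC50 by non-linear regression, or % inhibition at 10 μM if >10 μM.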

Assay [2] relates to IL-6 in human monocyte cell line (THP-1 cells). The assay can be described thus: IL-6 inhibition in LPS-stimulated THP-1 cells (HTRF). It is filed as cell-based. The note with it: IL-6 in LPS-stimulated THP-1 cells; for EC50: HTRF; for inhibition at 10 µM: read-out: percent inhibition in brackets beside EC50 >10 μM. The essentials: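 THP-1 cells, serum-reduced (1% FBS) for 24 h, were preincubated with compound (10-point 1:3 series from 10 μM, 0.1% DMSO) for 2 h, then stimulated with 500 ng/mL LPS for 22 h at 37° C. IL-6 was read by HTRF (665/620 nm ratio) and normalized to DMSO. EC50 from four-parameter fit; % inhibition at 10 μM given if EC50 >10 μM.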
Background: Time-resolved FRET reads energy transfer from a long-lived donor to a nearby acceptor.

Consider `O=C(Cc1ccccc1)Nc1cncc(-c2ccc3[nH]nc(-c4nc5cnccc5[nH]4)c3n2)c1` [Compound 262, N-(5-(3-(1H-imidazo[4,5-c]pyridin-2-yl)-1H-pyrazolo[4,3-b]pyridin-5-yl)pyridin-3-yl)-2-phenylacetamide], for which, in assay [1], the EC50 was more than 10 µM and the inhibition at 10 µM was found to be 0%. In assay [2], the EC50 was more than 10 µM and the inhibition at 10 µM is 35.4%.
As to `CC(C)(C)CC(=O)Nc1cncc(-c2ccc3[nH]nc(-c4nc5cnccc5[nH]4)c3n2)c1` [Compound 268, N-(5-(3-(1H-Imidazo[4,5-c]pyridin-2-yl)-1H-pyrazolo[4,3-b]pyridin-5-yl)pyridin-3-yl)-3,3-dimethylbutanamide], in assay [1], the EC50 was more than 10 µM and the inhibition at 10 µM was 0%. In assay [2], the EC50 is more than 10 µM and the inhibition at 10 µM was determined as 19%.
For `O=C(Nc1cncc(-c2ccc3[nH]nc(-c4nc5cnccc5[nH]4)c3n2)c1)C1CCCCC1` [Compound 275, N-(5-(3-(1H-Imidazo[4,5-c]pyridin-2-yl)-1H-pyrazolo[4,3-b]pyridin-5-yl)pyridin-3-yl)cyclohexanecarboxamide], in assay [1], the EC50 was more than 10 µM and the inhibition at 10 µM amounted to 28.8%. Moreover, in assay [2], the EC50 was more than 10 µM and the inhibition at 10 µM worked out at 31.5%.
On to `Cc1ccncc1-c1ccc2[nH]nc(-c3nc4c(-c5ccsc5)nccc4[nH]3)c2n1` [Compound 285, 5-(4-Methylpyridin-3-yl)-3-(4-(thiophen-3-yl)-1H-imidazo[4,5-c]pyridin-2-yl)-1H-pyrazolo[4,3-b]pyridine], for which the 50% effective concentration (EC50) in assay [1] is 0.493 µM; in assay [2], 1.33 µM.
Regarding `O=C(Nc1cncc(-c2ccc3[nH]nc(-c4nc5c(-c6ccsc6)nccc5[nH]4)c3n2)c1)c1ccccc1` [Compound 291, N-(5-(3-(4-(Thiophen-3-yl)-1H-imidazo[4,5-c]pyridin-2-yl)-1H-pyrazolo [4,3-b]pyridin-5-yl)pyridin-3-yl)benzamide], the concentration giving a half-maximal response (EC50) in assay [1] and in assay [2] was more than 10 µM throughout. The inhibition at 10 µM in assay [1] and in assay [2] was 0% throughout.
As to `CCCC(=O)Nc1cncc(-c2ccc3[nH]nc(-c4nc5c(-c6ccsc6)nccc5[nH]4)c3n2)c1` [Compound 297, N-(5-(3-(4-(Thiophen-3-yl)-1H-imidazo[4,5-c]pyridin-2-yl)-1H-pyrazolo [4,3-b]pyridin-5-yl)pyridin-3-yl)butyramide], in assay [1], the 50% effective concentration (EC50) was more than 10 µM and the inhibition at 10 µM turned out to be 16.1%. This compound had an EC50 in assay [2] of 3.67 µM.
Consider `c1ccc(CNCc2cncc(-c3ccc4[nH]nc(-c5nc6c(-c7ccsc7)nccc6[nH]5)c4n3)c2)cc1` [Compound 304, N-Benzyl-1-(5-(3-(4-(thiophen-3-yl)-1H-imidazo[4,5-c]pyridin-2-yl)-1H-pyrazolo [4,3-b]pyridin-5-yl)pyridin-3-yl)methanamine], for which the half-maximal effective concentration (EC50) in assay [1] was found to be 6.56 µM. Besides, in assay [2], the concentration giving a half-maximal response (EC50) is more than 10 µM and the inhibition at 10 µM came to 0%.
With `FC1(F)CCN(Cc2cncc(-c3ccc4[nH]nc(-c5nc6c(-c7ccsc7)nccc6[nH]5)c4n3)c2)C1` [Compound 306, 5-(5-((3,3-difluoropyrrolidin-1-yl)methyl)pyridin-3-yl)-3-(4-(thiophen-3-yl)-1H-imidazo[4,5-c]pyridin-2-yl)-1H-pyrazolo[4,3-b]pyridine], the EC50 amounted to 1.24 µM in assay [1] and 3.66 µM in assay [2].
For `CCNCc1cncc(-c2ccc3[nH]nc(-c4nc5c(-c6ccoc6)nccc5[nH]4)c3n2)c1` [Compound 314, N-((5-(3-(4-(Furan-3-yl)-1H-imidazo[4,5-c]pyridin-2-yl)-1H-pyrazolo[4,3-b]pyridin-5-yl)pyridin-3-yl)methyl)ethanamine], in assay [1], the concentration giving a half-maximal response (EC50) is more than 10 µM and the inhibition at 10 µM was found to be 20.6%. In assay [2], the EC50 is more than 10 µM and the inhibition at 10 µM came to 36%.
In the case of `CC(C)Nc1cncc(-c2ccc3[nH]nc(-c4nc5c(-c6ccoc6)nccc5[nH]4)c3n2)c1` [Compound 320, 5-(3-(4-(Furan-3-yl)-1H-imidazo[4,5-c]pyridin-2-yl)-1H-pyrazolo[4,3-b]pyridin-5-yl)-N-isopropylpyridin-3-amine], the EC50 in assay [1] is 0.17 µM; in assay [2] it was 0.482 µM.
As to `CCCCC(=O)Nc1cncc(-c2ccc3[nH]nc(-c4nc5c(-c6ccoc6)nccc5[nH]4)c3n2)c1` [Compound 327, N-(5-(3-(4-(Furan-3-yl)-1H-imidazo[4,5-c]pyridin-2-yl)-1H-pyrazolo[4,3-b]pyridin-5-yl)pyridin-3-yl)pentanamide], in assay [1], the EC50 is more than 10 µM and the inhibition at 10 µM stood at 0%. In assay [2], the EC50 was more than 10 µM and the inhibition at 10 µM came to 22.5%.
For the compound `c1cc2[nH]c(-c3n[nH]c4ccc(-c5cncc(CNCC6CCCC6)c5)nc34)nc2c(-c2ccoc2)n1` [Compound 333, 1-Cyclopentyl-N-((5-(3-(4-(furan-3-yl)-1H-imidazo[4,5-c]pyridin-2-yl)-1H-pyrazolo [4,3-b]pyridin-5-yl)pyridin-3-yl)methyl)methanamine], the EC50 in assay [1] and in assay [2] was more than 10 µM in each case. Further, the results for the inhibition at 10 µM in assay [1] and in assay [2] were 46.9% and 32.3%, respectively.
With `CCC(=O)Nc1cncc(-c2ccc3[nH]nc(-c4nc5c(-c6cccs6)nccc5[nH]4)c3n2)c1` [Compound 337, N-(5-(3-(4-(Thiophen-2-yl)-1H-imidazo[4,5-c]pyridin-2-yl)-1H-pyrazolo [4,3-b]pyridin-5-yl)pyridin-3-yl)propionamide], the half-maximal effective concentration (EC50) was 1.08 µM in assay [1] and more than 10 µM in assay [2]. The inhibition at 10 µM in assay [2] was 0%.
For the compound `CN1CCN(c2nccc3[nH]c(-c4n[nH]c5ccc(-c6cnccn6)nc45)nc23)CC1` [Compound 648, 3-(4-(4-Methylpiperazin-1-yl)-1H-imidazo[4,5-c]pyridin-2-yl)-5-(pyrazin-2-yl)-1H-pyrazolo[4,3-b]pyridine], the figures for the concentration giving a half-maximal response (EC50) in assay [1] and in assay [2] were 6.47 µM and 0.998 µM, respectively.
For the compound `c1cc2[nH]c(-c3n[nH]c4ccc(-c5cn[nH]c5)nc34)nc2cn1` [Compound 651, 3-(1H-Imidazo[4,5-c]pyridin-2-yl)-5-(1H-pyrazol-4-yl)-1H-pyrazolo[4,3-b]pyridine], the EC50 in assay [1] and in assay [2] was more than 10 µM throughout. The inhibition at 10 µM in assay [1] came out at 16.4%; in assay [2], 0%.
`c1cc2[nH]c(-c3n[nH]c4ccc(-c5cncc(OC6CCNCC6)c5)nc34)nc2cn1` [Compound 656, 3-(1H-Imidazo[4,5-c]pyridin-2-yl)-5-(5-(piperidin-4-yloxy)pyridin-3-yl)-1H-pyrazolo[4,3-b]pyridine] came in with an EC50 in assay [1] of 3.33 µM. Further, in assay [2], the EC50 was more than 10 µM and the inhibition at 10 µM is 41.3%.
As for `Oc1cncc(-c2ccc3[nH]nc(-c4nc5cnccc5[nH]4)c3n2)c1` [Compound 661, 5-(3-(1H-Imidazo[4,5-c]pyridin-2-yl)-1H-pyrazolo[4,3-b]pyridin-5-yl) pyridin-3-ol], the concentration for a half-maximal effect (EC50) in assay [1] and in assay [2] was more than 10 µM each time. Further, the inhibition at 10 µM in assay [1] came to 0%; in assay [2], 31.3%.
Compound `O=C(CC1CCNCC1)Nc1cncc(-c2ccc3[nH]nc(-c4nc5c(-c6ccsc6)nccc5[nH]4)c3n2)c1` [Compound 673, 2-(Piperidin-4-yl)-N-(5-(3-(4-(thiophen-3-yl)-1H-imidazo[4,5-c]pyridin-2-yl)-1H-pyrazolo[4,3-b]pyridin-5-yl)pyridin-3-yl)acetamide] had an EC50 in assay [1] of 1.07 µM. Also, in assay [2], the concentration for a half-maximal effect (EC50) was more than 10 µM and the inhibition at 10 µM is 40.5%.
For `Cc1ncc(-c2ccc3[nH]nc(-c4nc5c(-c6ccoc6)nccc5[nH]4)c3n2)n1C` [Compound 685, 5-(1,2-Dimethyl-1H-imidazol-5-yl)-3-(4-(furan-3-yl)-1H-imidazo[4,5-c]pyridin-2-yl)-1H-pyrazolo[4,3-b]pyridine], in that order: 5.3 µM, more than 10 µM and 30.2%.
On to `c1cc2[nH]c(-c3n[nH]c4ccc(-c5cncc(OCCN6CCCC6)c5)nc34)nc2c(-c2ccoc2)n1` [Compound 690, 3-(4-(Furan-3-yl)-1H-imidazo[4,5-c]pyridin-2-yl)-5-(5-(2-(pyrrolidin-1-yl)ethoxy)pyridin-3-yl)-1H-pyrazolo[4,3-b]pyridine], for which, in assay [1], the concentration giving a half-maximal response (EC50) was more than 10 µM and the inhibition at 10 µM is 42.6%. This compound also displayed a concentration giving a half-maximal response (EC50) in assay [2] of 1.46 µM.
`COc1cncc(-c2ccc3[nH]nc(-c4nc5c(-c6ccoc6)nccc5[nH]4)c3n2)c1` [Compound 692, 3-(4-(Furan-3-yl)-1H-imidazo[4,5-c]pyridin-2-yl)-5-(5-methoxypyridin-3-yl)-1H-pyrazolo[4,3-b]pyridine] had a 50% effective concentration (EC50) in assay [1] of 0.334 µM. Further, in assay [2], the half-maximal effective concentration (EC50) was more than 10 µM and the inhibition at 10 µM was 44%.
For `Cn1cc(-c2ccc3[nH]nc(-c4nc5c(-c6cccs6)nccc5[nH]4)c3n2)cn1` [Compound 700, 5-(1-Methyl-1H-pyrazol-4-yl)-3-(4-(thiophen-2-yl)-1H-imidazo[4,5-c]pyridin-2-yl)-1H-pyrazolo[4,3-b]pyridine], in that order: 0.224 µM, more than 10 µM and 0%.

Source of the values: US10195185B2, “3-(1H-imidazo[4,5-C]pyridin-2-yl)-1H-pyrazolo[4,3-B]pyridines and therapeutic uses thereof” (Samumed, LLC, priority 2015, dated 2019).
